Data reported in patent US9469645B2, “Compounds and compositions for the treatment of parasitic diseases” (Novartis AG, priority 2009, dated 2016).

How the values were obtained:
3D7 P. falciparum strain = test: parasite proliferation assay in infected red blood cells (SYBR Green I); type: cell-based, Plasmodium falciparum; settings: Plasmodium falciparum, 3D7, Erythrocyte, 3D7 strain; read-out: EC50 3D7 strain
Summary of the method: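 P. falciparum 3D7 grown in O+ human erythrocytes to 3–8% parasitemia and exposed to compounds. Proliferation read as the increase in parasite DNA. Detection used SYBR Green I in saponin/triton-X/EDTA lysis buffer, with overnight lysis at room temperature.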

W2 strain [1] = test: parasite proliferation assay in infected red blood cells (SYBR Green I), W2 strain; type: cell-based, Plasmodium falciparum; settings: Plasmodium falciparum, Erythrocyte
Source text: (§1) Compounds of the invention can be assayed to measure their capacity to inhibit proliferation of parasitemia in infected red blood cells. The proliferation is quantified by the addition of SYBR Green I (INVITROGEN)® dye which has a high affinity for double stranded DNA.

W2 strain [2] = test: as above; type: cell-based; settings: Erythrocyte
Source text: as §1

SMILES	EC50 (3D7 P. falciparum strain)	EC50 (W2 strain [1])	EC50 (W2 strain [2])
Cc1ccc(Nc2c(-c3ccncc3)nc3n2CCN(C(=O)C(C)(C)N)C3)cc1 [Compound 398]	2730 nM	2680 nM	–
Cc1ccc(Nc2c(-c3ccc(F)cc3)nc3n2CCN(C(=O)CNC(C)(C)C)C3)cc1 [Compound 399]	220 nM	196 nM	–
CN[C@@H](Cc1ccc(Cl)cc1)C(=O)N1CCn2c(nc(-c3ccc(F)cc3)c2Nc2ccc(C)cc2)C1 [Compound 400]	180 nM	105 nM	–
Cc1ccc(Nc2c(-c3ccc(F)cc3)nc3n2CCN(C(=O)[C@@H](N)CC2CC2)C3)cc1 [Compound 401]	20 nM	12 nM	–
Cc1ccc(Nc2c(-c3ccc(F)cc3)nc3n2CCN(C(=O)[C@@H](C)NCc2ccccc2)C3)cc1 [Compound 402]	120 nM	122 nM	–
Cc1ccc(Nc2c(-c3ccc(F)cc3)nc3n2CCN(C(=O)[C@H](C)NCc2ccccc2)C3)cc1 [Compound 403]	510 nM	543 nM	–
Cc1ccc(Nc2c(-c3ccc(F)cc3)nc3n2CCN(C(=O)[C@@H](N)C2CC2)C3)cc1 [Compound 404]	20 nM	12 nM	–
Cc1ccc(Nc2c(-c3ccc(F)c(F)c3)nc3n2CCN(C(=O)[C@H](C)N)C3)cc1 [Compound 406]	60 nM	40 nM	–
Cc1ccc(Nc2c(-c3ccc(F)cc3)nc3n2CCN(C(=O)C(C)Nc2ccc(C)cc2)C3)cc1 (stereo not drawn) [Compound 407]	710 nM	523 nM	–
Cc1ccc(Nc2c(-c3cc(F)ccc3F)nc3n2CCN(C(=O)C(C)(C)N)C3)cc1 [Compound 408]	930 nM	908 nM	–
Cc1ccc(Nc2c(-c3ccc(F)cc3)nc3n2CCN(C(=O)CN)C3(C)C)cc1 [Compound 409]	10 nM	6 nM	–
CC(C)(N)C(=O)N1CCn2c(nc(-c3ccc(F)cc3)c2Nc2ccc(Cl)c(Cl)c2)C1 [Compound 410]	60 nM	37 nM	–
Fc1ccc(-c2nc3n(c2Nc2ccc(Cl)c(Cl)c2)CCNC3)cc1 [Compound 411]	140 nM	106 nM	–
CCN(c1ccc(Cl)c(F)c1)c1c(-c2ccc(F)cc2)nc2n1CCNC2 [Compound 413]	180 nM	131 nM	–
CN[C@@H](C(=O)N1CCn2c(nc(-c3ccc(F)cc3)c2Nc2ccc(C)cc2)C1)C(C)C [Compound 414]	160 nM	156 nM	–
Cc1ccc(Nc2c(-c3ccc(F)cc3)nc3n2CCNC3(C)C)cc1 [Compound 415]	10 nM	13 nM	–
CC1(C)NCCn2c1nc(-c1ccc(F)cc1)c2Nc1ccc(Cl)cc1 [Compound 416]	10 nM	16 nM	–
CC1(C)c2nc(-c3ccc(F)cc3)c(Nc3ccc(Cl)cc3)n2CCN1C(=O)CN [Compound 417, 2-amino-1-(3-(4-chlorophenylamino)-2-(4-fluorophenyl)-8,8-dimethyl-5,6-dihydroimidazo[1,2-a]pyrazin-7(8H)-yl)ethanone]	10 nM	6 nM	–
Cc1ccc(Nc2c(-c3cc(F)ccc3F)nc3n2CCN(C(=O)CN)C3)cc1 [Compound 418]	90 nM	146 nM	–

SMILES	EC50 (3D7 P. falciparum strain)	EC50 (W2 strain [1])	EC50 (W2 strain [2])
CC1(C)c2nc(-c3ccc(F)cc3)c(Nc3ccc(Cl)c(F)c3)n2CCN1C(=O)CN [Compound 419]	30 nM	24 nM	–
CC1(C)NCCn2c1nc(-c1ccc(F)cc1)c2Nc1ccc(Cl)c(F)c1 [Compound 420]	20 nM	28 nM	–
CC1(C)NCCn2c1nc(-c1ccc(F)cc1)c2Nc1ccc(F)c(F)c1 [Compound 422]	10 nM	21 nM	–
CC1(C)NCCn2c1nc(-c1ccc(F)cc1)c2Nc1ccc(F)c(Cl)c1 [Compound 424]	20 nM	30 nM	–
CC1(C)c2nc(-c3ccc(F)cc3)c(Nc3ccc(C#N)cc3)n2CCN1C(=O)CN [Compound 425]	10 nM	12 nM	–
CC1(C)NCCn2c1nc(-c1ccc(F)cc1)c2Nc1ccc(C#N)cc1 [Compound 426]	180 nM	271 nM	–
COc1cc(Nc2c(-c3ccc(F)cc3)nc3n2CCN(C(=O)C(C)(C)N)C3)cc(F)c1F [Compound 427]	210 nM	436 nM	–
Cc1cc(Nc2c(-c3ccc(F)cc3)nc3n2CCN(C(=O)C(C)(C)N)C3)cc(C)c1F [Compound 428]	170 nM	242 nM	–
N[C@@H](CC1CCC1)C(=O)N1CCn2c(nc(-c3ccc(F)cc3)c2Nc2ccc(F)c(F)c2)C1 [Compound 429]	20 nM	36 nM	–
CC(C)[C@@H](O)C(=O)N1CCn2c(nc(-c3ccc(F)cc3)c2Nc2ccc(F)c(F)c2)C1 [Compound 430]	10 nM	19 nM	–
N[C@@H](Cc1cscn1)C(=O)N1CCn2c(nc(-c3ccc(F)cc3)c2Nc2ccc(F)c(F)c2)C1 [Compound 431]	70 nM	80 nM	–
Cc1ccc(C[C@H](N)C(=O)N2CCn3c(nc(-c4ccc(F)cc4)c3Nc3ccc(F)c(F)c3)C2)cc1 [Compound 432]	60 nM	67 nM	–
N[C@@H](Cc1ccc(F)c(F)c1)C(=O)N1CCn2c(nc(-c3ccc(F)cc3)c2Nc2ccc(F)c(F)c2)C1 [Compound 433]	40 nM	49 nM	–
CC(C)[C@H](N)C(=O)N1CCn2c(nc(-c3ccc(F)cc3)c2Nc2ccc(F)c(F)c2)C1 [Compound 434]	20 nM	19 nM	–
C[C@H](N)C(=O)N1CCn2c(nc(-c3ccc(F)cc3)c2Nc2ccc(F)c(F)c2)C1 [Compound 435]	50 nM	98 nM	–
N[C@H](C(=O)N1CCn2c(nc(-c3ccc(F)cc3)c2Nc2ccc(F)c(F)c2)C1)c1ccc(F)cc1 [Compound 436]	30 nM	52 nM	–
N[C@H](C(=O)N1CCn2c(nc(-c3ccc(F)cc3)c2Nc2ccc(F)c(F)c2)C1)C1CC1 [Compound 437]	20 nM	28 nM	–
N[C@@H](CC1CC1)C(=O)N1CCn2c(nc(-c3ccc(F)cc3)c2Nc2ccc(F)c(F)c2)C1 [Compound 438]	20 nM	23 nM	–
CC(C)C[C@H](N)C(=O)N1CCn2c(nc(-c3ccc(F)cc3)c2Nc2ccc(F)c(F)c2)C1 [Compound 439]	30 nM	40 nM	–

SMILES	EC50 (3D7 P. falciparum strain)	EC50 (W2 strain [1])	EC50 (W2 strain [2])
CC(C)[C@H](O)C(=O)N1CCn2c(nc(-c3ccc(F)cc3)c2Nc2ccc(F)c(F)c2)C1 [Compound 440]	20 nM	28 nM	–
O=C([C@@H]1CCN1)N1CCn2c(nc(-c3ccc(F)cc3)c2Nc2ccc(F)c(F)c2)C1 [Compound 441]	60 nM	81 nM	–
CC[C@H](C)[C@H](N)C(=O)N1CCn2c(nc(-c3ccc(F)cc3)c2Nc2ccc(F)c(F)c2)C1 [Compound 442]	20 nM	33 nM	–
N[C@@H](Cc1ccc(F)cc1)C(=O)N1CCn2c(nc(-c3ccc(F)cc3)c2Nc2ccc(F)c(F)c2)C1 [Compound 443]	50 nM	55 nM	–
CC(C)N(c1ccc(Cl)c(F)c1)c1c(-c2ccc(F)cc2)nc2n1CCNC2 [Compound 444]	7220 nM	5960 nM	–
CC(C)N(c1cccc(F)c1)c1c(-c2ccc(F)cc2)nc2n1CCNC2 [Compound 445]	2600 nM	3270 nM	–
CCN(c1cccc(F)c1)c1c(-c2ccc(F)cc2)nc2n1CCNC2 [Compound 446]	310 nM	243 nM	–
C[C@H](N)C(=O)N1CCn2c(nc(-c3ccc(F)cc3)c2Nc2ccc(Cl)cc2)C1 [Compound 448]	20 nM	22 nM	–
CC(C)[C@H](N)C(=O)N1CCn2c(nc(-c3ccc(F)cc3)c2Nc2ccc(Cl)cc2)C1 [Compound 449]	30 nM	26 nM	–
N[C@H](C(=O)N1CCn2c(nc(-c3ccc(F)cc3)c2Nc2ccc(Cl)cc2)C1)C1CC1 [Compound 450]	20 nM	15 nM	–
N[C@@H](CC1CC1)C(=O)N1CCn2c(nc(-c3ccc(F)cc3)c2Nc2ccc(Cl)cc2)C1 [Compound 451]	30 nM	19 nM	–
CC1(C)c2nc(-c3ccc(F)cc3)c(Nc3cc(F)c(F)c(F)c3)n2CCN1C(=O)CN [Compound 554]	–	7 nM	–
O=C(CO)N1CCn2c(nc(-c3ccc(F)cc3)c2Nc2ccc(F)cc2)C1 [Example 44, 1-(2-(4-fluorophenyl)-3-(4-fluorophenylamino)-5,6-dihydroimidazo[1,2-a]pyrazin-7(8H)-yl)-2-hydroxyethanone]	720 nM	–	477 nM
Cc1ccc(Nc2c(-c3ccc(F)cc3)nc3n2CCNC3)cc1 [Example 113, 2-(4-fluorophenyl)-N-p-tolyl-5,6,7,8-tetrahydroimidazo[1,2-a]pyrazin-3-amine]	150 nM	–	146 nM
Cc1ccc(Nc2c(-c3ccc(F)cc3)nc3cnccn23)cc1 [Example 136, 2-(4-fluorophenyl)-N-p-tolylimidazo[1,2-a]pyrazin-3-amine]	2020 nM	–	2690 nM
Cc1ccc(Nc2c(-c3ccc(F)cc3)nc3n2CCN(C(=O)N2CCC(N(C)C)C2)C3)cc1 (stereo not drawn) [Example 251, (3-(dimethylamino)pyrrolidin-1-yl)(2-(4-fluorophenyl)-3-(p-tolylamino)-5,6-dihydroimidazo[1,2-a]pyrazin-7(8H)-yl)methanone]	3680 nM	–	2550 nM
Fc1ccc(-c2nc3n(c2Nc2ccc(Cl)cc2)CCNC3)cc1 [Example 262, N-(4-chlorophenyl)-2-(4-fluorophenyl)-5,6,7,8-tetrahydroimidazo[1,2-a]pyrazin-3-mine]	240 nM	–	267 nM
Cc1ccc(Nc2c(-c3cccc(C)c3)nc3n2CCNC3)cc1 [Example 266, 2-m-tolyl-N-p-tolyl-5,6,7,8-tetrahydroimidazo[1,2-a]pyrazin-3-amine]	1170 nM	–	1310 nM
